Measured values from patent US20060173015A1, “Cyclohexyldiamines as selective alpha 1a/1d adrenoreceptor antagonists for the treatment of benign prostatic hypertrophy and lower urinary tract symptoms” (priority 2004, published 2006).
Where a name gives a salt, the structure may show the parent alone.

What was measured:
[1] = system: α1a and α1d subtypes over the α1b subtype; settings: cited from earlier work
BPH patients = settings: large clinical trials of BPH patients; cited from earlier work
micturition pressure = settings: intrathecal; normal rats and rats with bladder hypertrophy secondary to outlet obstruction; cited from earlier work
α1b-AR = target: T1, α1b-AR (Homo sapiens, UniProt P35368); assay: α1-Adrenergic receptor radio-ligand (125I-HEAT) binding assay, α1b subtype; settings: Receptor Binding, Ki α1b-AR, COS-7 cell membranes, 125I-HEAT
T1 sequence (P35368 1-520): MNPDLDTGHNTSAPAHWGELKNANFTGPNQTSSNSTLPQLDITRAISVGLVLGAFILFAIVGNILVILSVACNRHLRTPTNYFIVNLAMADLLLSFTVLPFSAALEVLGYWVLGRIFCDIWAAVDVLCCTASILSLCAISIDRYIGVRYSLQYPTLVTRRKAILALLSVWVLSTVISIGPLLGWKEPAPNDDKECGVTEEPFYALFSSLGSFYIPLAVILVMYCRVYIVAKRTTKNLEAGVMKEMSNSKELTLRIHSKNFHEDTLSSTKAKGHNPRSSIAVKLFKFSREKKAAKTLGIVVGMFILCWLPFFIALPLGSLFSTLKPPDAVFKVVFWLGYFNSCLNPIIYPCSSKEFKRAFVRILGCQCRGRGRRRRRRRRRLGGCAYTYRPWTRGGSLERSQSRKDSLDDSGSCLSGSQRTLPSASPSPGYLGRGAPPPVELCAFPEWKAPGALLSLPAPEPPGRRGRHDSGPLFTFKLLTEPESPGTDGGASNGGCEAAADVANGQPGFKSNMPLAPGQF

α1d-AR = target: T2, α1d-AR (Homo sapiens, UniProt P25100); assay: α1-Adrenergic receptor radio-ligand (125I-HEAT) binding assay, α1d subtype; settings: COS-7 cell membranes, 125I-HEAT; read-out: Receptor Binding, Ki α1d-AR
T2 construct: expressed in transfected cells; host or cells: COS-7
T2 sequence (P25100 1-572): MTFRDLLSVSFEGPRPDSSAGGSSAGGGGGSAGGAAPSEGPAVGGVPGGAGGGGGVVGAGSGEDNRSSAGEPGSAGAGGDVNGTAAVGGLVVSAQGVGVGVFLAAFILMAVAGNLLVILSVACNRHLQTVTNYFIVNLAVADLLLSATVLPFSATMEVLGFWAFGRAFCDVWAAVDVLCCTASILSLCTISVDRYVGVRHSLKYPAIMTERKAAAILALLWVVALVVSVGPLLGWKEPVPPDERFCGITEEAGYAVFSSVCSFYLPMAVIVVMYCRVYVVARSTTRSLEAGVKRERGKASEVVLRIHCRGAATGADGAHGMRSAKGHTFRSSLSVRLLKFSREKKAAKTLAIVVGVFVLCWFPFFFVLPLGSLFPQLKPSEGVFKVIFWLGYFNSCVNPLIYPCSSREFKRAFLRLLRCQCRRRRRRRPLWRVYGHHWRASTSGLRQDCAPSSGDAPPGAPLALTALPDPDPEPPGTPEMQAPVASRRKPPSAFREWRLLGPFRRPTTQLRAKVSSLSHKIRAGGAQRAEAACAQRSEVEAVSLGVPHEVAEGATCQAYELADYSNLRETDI

α1a-AR = target: T3, α1a-AR (Homo sapiens, UniProt P35348); assay: α1-Adrenergic receptor radio-ligand (125I-HEAT) binding assay, α1a subtype; settings: COS-7 cell membranes, 125I-HEAT
T3 construct: expressed in transfected cells; host or cells: COS-7
T3 sequence (P35348 1-466): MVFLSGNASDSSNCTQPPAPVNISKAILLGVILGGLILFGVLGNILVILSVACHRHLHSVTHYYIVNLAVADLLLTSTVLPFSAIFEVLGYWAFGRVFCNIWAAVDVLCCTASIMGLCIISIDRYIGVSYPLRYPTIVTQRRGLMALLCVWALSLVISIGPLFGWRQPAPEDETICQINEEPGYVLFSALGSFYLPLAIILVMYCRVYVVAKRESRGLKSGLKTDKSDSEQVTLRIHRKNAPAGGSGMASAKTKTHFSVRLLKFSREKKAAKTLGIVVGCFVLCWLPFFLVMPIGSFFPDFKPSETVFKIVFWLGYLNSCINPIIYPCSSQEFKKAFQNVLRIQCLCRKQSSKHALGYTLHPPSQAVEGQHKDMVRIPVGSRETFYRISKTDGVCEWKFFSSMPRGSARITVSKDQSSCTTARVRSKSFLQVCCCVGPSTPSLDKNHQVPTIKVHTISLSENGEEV
Method in brief: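 Membranes from COS-7 cells transfected with the α1a-AR were incubated with 50 pM final ¹²⁵I-HEAT and test compound (1 pM–10 μM final, half-log steps) in Tris/EDTA/NaCl buffer pH 7.4 for 1 hr at rt. Bound radioactivity was counted after GF/C filtration, in triplicate.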

Molecule `COc1ccc(S(=O)(=O)N[C@H]2CC[C@@H](N3CCN(c4cc(F)ccc4OCC(F)(F)F)CC3)CC2)cc1OC` (as salt: fumarate) [Cpd 83, N-cis-(4-{4-[5-Fluoro-2-(2,2,2-trifluoro-ethoxy)-phenyl]-piperazin-1-yl}-cyclohexyl)-3,4-dimethoxy-benzenesulfonamide] has a melting point of 232 °C.
For `CCOc1ccccc1OCCN[C@H](C)Cc1ccc(OC)c(S(N)(=O)=O)c1` [Tamsulosin], the “selectivity for the α1a and α1d subtypes over the α1b subtype” value [1] is listed as “about 15 fold” and the “effect on obstructive and irritative symptoms” value (BPH patients) is listed as “improvement in both obstructive and irritative symptoms”.
For `COc1cc2nc(N3CCN(C(=O)C4COc5ccccc5O4)CC3)nc(N)c2cc1OC` (stereo not shown) [doxazosin], the “effect on micturition pressure” value (micturition pressure) is listed as “decrease in micturition pressure”.
`COc1ccc(S(=O)(=O)N[C@H]2CC[C@H](N3CCN(c4cc(F)ccc4OCC(F)(F)F)CC3)CC2)cc1OC` (as salt: fumarate) [Cpd 84, N-trans-(4-{4-[5-Fluoro-2-(2,2,2-trifluoro-ethoxy)-phenyl]-piperazin-1-yl}-cyclohexyl)-3,4-dimethoxy-benzenesulfonamide] gave a melting point of 185 °C.
For `CC(C)Oc1ccccc1N1CCN([C@H]2CC[C@@H](NS(=O)(=O)c3ccc(Cl)cc3Cl)CC2)CC1` [Cpd 1, 2,4-Dichloro-N-cis-{4-[4-(2-isopropoxy-phenyl)-piperazine-1-yl]-cyclohexyl}-benzenesulfonamide], the Ki (α1b-AR) was 0.177 µM, the Ki (α1d-AR) was 0.00064 µM and the Ki (α1a-AR) was 0.0045 µM.
`CCN([C@H]1CC[C@H](N2CCN(c3ccccc3OC(C)C)CC2)CC1)S(=O)(=O)c1ccc(OC)c(OC)c1` [Cpd 68, N-Ethyl-N-trans-{4-[4-(2-isopropoxy-phenyl)-piperazin-1-yl]-cyclohexyl}-3,4-dimethoxy-benzenesulfonamide] showed a Ki (α1b-AR) of 0.109 µM, a Ki (α1d-AR) of 0.0067 µM and a Ki (α1a-AR) of 0.023 µM.
For `CC(C)Oc1ccccc1N1CCN([C@H]2CC[C@@H](NS(=O)(=O)c3cccnc3)CC2)CC1` [Cpd 59, Pyridine-3-sulfonic acid N-cis-{4-[4-(2-isopropoxy-phenyl)-piperazin-1-yl]-cyclohexyl}-amide], the Ki (α1b-AR) was 0.4 µM, the Ki (α1d-AR) was 0.046 µM and the Ki (α1a-AR) was 0.005 µM.
In the case of `CCN([C@H]1CC[C@@H](N2CCN(c3ccccc3OC(C)C)CC2)CC1)S(=O)(=O)c1ccc(OC)c(OC)c1` (as salt: fumarate) [Cpd 67, N-Ethyl-N-cis-{4-[4-(2-isopropoxy-phenyl)-piperazin-1-yl]-cyclohexyl}-3,4-dimethoxy-benzenesulfonamide], the melting point is reported as 199 °C (dec.).
For `COc1ccc(C(F)(F)F)cc1S(=O)(=O)N[C@H]1CC[C@H](N2CCN(c3ccccc3OC(C)C)CC2)CC1` [Cpd 48, N-trans-{4-[4-(2-Isopropoxy-phenyl)-piperazin-1-yl]-cyclohexyl}-2-methoxy-5-trifluoromethyl-benzenesulfonamide], the Ki (α1b-AR) was 0.258 µM, the Ki (α1d-AR) was 0.0015 µM and the Ki (α1a-AR) was 0.0245 µM.
Molecule `CC(C)Oc1ccccc1N1CCN([C@H]2CC[C@H](NS(=O)(=O)c3ccc(F)cc3)CC2)CC1` [Cpd 38, 4-Fluoro-N-trans-{4-[4-(2-isopropoxy-phenyl)-piperazin-1-yl]-cyclohexyl}-benzenesulfonamide] has a Ki (α1b-AR) of 0.301 µM, a Ki (α1d-AR) of 0.036 µM and a Ki (α1a-AR) of 0.0013 µM.
Work on `CC(C)Oc1ccccc1N1CCN([C@H]2CC[C@@H](NS(=O)(=O)Cc3ccccc3)CC2)CC1` [Cpd 57, N-cis-{4-[4-(2-Isopropoxy-phenyl)-piperazin-1-yl]-cyclohexyl}-C-phenyl-methanesulfonamide] yielded a Ki (α1b-AR) of 0.082 µM, a Ki (α1d-AR) of 0.0036 µM and a Ki (α1a-AR) of 0.0012 µM.
`COc1ccncc1S(=O)(=O)N[C@H]1CC[C@@H](N2CCN(c3ccccc3OC(C)C)CC2)CC1` [Cpd 60, 4-Methoxy-pyridine-3-sulfonic acid N-cis-{4-[4-(2-isopropoxy-phenyl)-piperazin-1-yl]-cyclohexyl}-amide] showed a Ki (α1b-AR) of 0.169 µM, a Ki (α1d-AR) of 0.0094 µM and a Ki (α1a-AR) of 0.0049 µM.
With `CCN([C@H]1CC[C@H](N2CCN(c3ccccc3OC(C)C)CC2)CC1)S(=O)(=O)c1ccc(OC)c(OC)c1` (as salt: fumarate) [Cpd 68, N-Ethyl-N-trans-{4-[4-(2-isopropoxy-phenyl)-piperazin-1-yl]-cyclohexyl}-3,4-dimethoxy-benzenesulfonamide] the melting point was 186 °C (dec.).
Work on `CC(C)Oc1ccccc1N1CCN([C@H]2CC[C@H](NS(=O)(=O)c3cc(Cl)ccc3F)CC2)CC1` [Cpd 40, 5-Chloro-2-fluoro-N-trans-{4-[4-(2-isopropoxy-phenyl)-piperazin-1-yl]-cyclohexyl}-benzenesulfonamide] yielded a Ki (α1b-AR) of 0.441 µM, a Ki (α1d-AR) of 0.0273 µM and a Ki (α1a-AR) of 0.0089 µM.
For `CC(C)Oc1ccccc1N1CCN([C@H]2CC[C@H](NS(=O)(=O)c3ccccc3S(C)(=O)=O)CC2)CC1` [Cpd 33, N-trans-{4-[4-(2-Isopropoxy-phenyl)-piperazin-1-yl]-cyclohexyl}-2-methanesulfonyl-benzenesulfonamide], the Ki (α1b-AR) was 0.118 µM, the Ki (α1d-AR) was 0.0028 µM and the Ki (α1a-AR) was 0.0125 µM.
Work on `CC(C)Oc1ccccc1N1CCN([C@H]2CC[C@@H](NS(=O)(=O)c3ccccc3C(F)(F)F)CC2)CC1` [Cpd 13, N-cis-{4-[4-(2-Isopropoxy-phenyl)-piperazin-1-yl]-cyclohexyl}-2-trifluoromethyl-benzenesulfonamide] yielded a Ki (α1b-AR) of 0.19 µM, a Ki (α1d-AR) of 0.0034 µM and a Ki (α1a-AR) of 0.023 µM.
Molecule `CC(C)Oc1ccccc1N1CCN([C@H]2CC[C@H](NS(=O)(=O)c3cnc(Cl)c(Br)c3)CC2)CC1` [Cpd 66, 5-Bromo-6-chloro-pyridine-3-sulfonic acid N-trans-{4-[4-(2-isopropoxy-phenyl)-piperazin-1-yl]-cyclohexyl}-amide] has a Ki (α1b-AR) of 0.279 µM, a Ki (α1d-AR) of 0.0146 µM and a Ki (α1a-AR) of 0.0035 µM.
